In US20090018111A1, “Novel Antimicrobial Medicament” (priority 2004, published 2009):
Where two headings read alike, the source gives them in different places.

Key:
Experiment in all cases: Sensitivity test (agar dilution)
[1] = system: S. aureus 209P; assay type: cell-based, Staphylococcus aureus; details: for MIC: Staphylococcus aureus, 209P
Summary of the method: (§1)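 Water-dissolved compounds, alone or mixed, were incorporated into Mueller Hinton agar at twofold serial concentrations. Spot inoculation used about 5 μl of about 10^6 CFU/ml suspension.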

[2] = system: S. aureus MS94088 (hetero-MRSA); assay type: cell-based, Staphylococcus aureus; details: Staphylococcus aureus, MRSA
Summary of the method: as §1

[3] = system: S. aureus SP-7928 (homo-MRSA); assay type: cell-based, Staphylococcus aureus
Summary of the method: as §1

[4] = system: M. luteus ATCC9341; assay type: cell-based, Micrococcus luteus; details: Micrococcus luteus
Summary of the method: as §1

[5] = system: K. pneumoniae ATCC10031; assay type: cell-based, Klebsiella pneumoniae; details: Klebsiella pneumoniae
Summary of the method: as §1

[6] = system: E. aerogenes ATCC13048; assay type: cell-based, Enterobacter aerogenes; details: Klebsiella aerogenes
Summary of the method: as §1

[7] = system: C. freundii GN346; assay type: cell-based, Citrobacter freundii; details: Citrobacter freundii, C. freundii GN346, read-out: MIC concomitant
Summary of the method: as §1

[8] = Concomitant (IPM:SM = 1:1), read-out: MIC
[9] = Concomitant (MEPM:SM = 1:1), read-out: MIC
[10] = Concomitant (MEPM:SM = 1:2), read-out: MIC
[11] = Concomitant (MEPM:SM = 1:4), read-out: MIC
[12] = Concomitant drug (MEPM:SM = 2:1), read-out: MIC

## C[C@H]1C=C(c2csc(SC3=C(C(=O)O)N4C(=O)[C@H]([C@@H](C)O)[C@H]4[C@H]3C)n2)CN1 [SM, (4R,5S,6S)-6-[(1R)-1-Hydroxyethyl]-4-methyl-3-({4-[(5S)-5-methyl-2,5-dihydro-1H-pyrrol-3-yl]-1,3-thiazol-2-yl}sulfanyl)-7-oxo-1-azabicyclo[3.2.0]hept-2-ene-2-carboxylic acid]
[1]; Concomitant (AZT:SM = 1:1), S. aureus 209P, read-out: MIC concomitant
  MIC: 0.008 µg/mL
[1]; Concomitant (BIPM:SM = 1:1), S. aureus 209P, read-out: MIC concomitant
  MIC: 0.008 µg/mL
[1]; Concomitant (CAZ:SM = 1:1), S. aureus 209P, read-out: MIC concomitant
  MIC: 0.004 µg/mL
[1]; Concomitant (CPFX:SM = 1:1), S. aureus 209P, read-out: MIC concomitant
  MIC: 0.008 µg/mL
[1]; Concomitant (DRPM:SM = 1:1), S. aureus 209P, read-out: MIC concomitant
  MIC: 0.004 µg/mL
[1]; [8]
  MIC: 0.004 µg/mL
[1]; [9]
  MIC: ≤ 0.016 µg/mL
[1]; [10]
  MIC: ≤ 0.031 µg/mL
[1]; [11]
  MIC: ≤ 0.063 µg/mL
[1]; Concomitant (PAPM:SM = 1:1), S. aureus 209P, read-out: MIC concomitant
  MIC: 0.004 µg/mL
[1]; Concomitant (PIPC:SM = 1:1), S. aureus 209P, read-out: MIC concomitant
  MIC: 0.004 µg/mL
[1]; [12]
  MIC: ≤ 0.008 µg/mL
[1]; alone, read-out: MIC
  MIC: ≤ 0.008 µg/mL
[1]; drug alone, S. aureus 209P, read-out: MIC alone
  MIC: 0.008 µg/mL
[1]; drug alone, S. aureus 209P
  MIC alone: 0.004 µg/mL
[2]; Concomitant (AZT:SM = 1:1), S. aureus MS94088 (hetero-MRSA), read-out: MIC concomitant
  MIC: 0.25 µg/mL
[2]; Concomitant (BIPM:SM = 1:1), S. aureus MS94088 (hetero-MRSA), read-out: MIC concomitant
  MIC: 0.25 µg/mL
[2]; Concomitant (CAZ:SM = 1:1), S. aureus MS94088 (hetero-MRSA), read-out: MIC concomitant
  MIC: 0.25 µg/mL
[2]; Concomitant (CPFX:SM = 1:1), S. aureus MS94088 (hetero-MRSA), read-out: MIC concomitant
  MIC: 0.125 µg/mL
[2]; Concomitant (DRPM:SM = 1:1), S. aureus MS94088 (hetero-MRSA), read-out: MIC concomitant
  MIC: 0.25 µg/mL
[2]; [8]
  MIC: 0.25 µg/mL
[2]; [9]
  MIC: 0.25 µg/mL
[2]; [10]
  MIC: 0.25 µg/mL
[2]; [11]
  MIC: 0.25 µg/mL
[2]; Concomitant (PAPM:SM = 1:1), S. aureus MS94088 (hetero-MRSA), read-out: MIC concomitant
  MIC: 0.25 µg/mL
[2]; Concomitant (PIPC:SM = 1:1), S. aureus MS94088 (hetero-MRSA), read-out: MIC concomitant
  MIC: 0.125 µg/mL
[2]; [12]
  MIC: 0.25 µg/mL
[2]; alone, read-out: MIC
  MIC: 0.25 µg/mL
[2]; drug alone, S. aureus MS94088 (hetero-MRSA), read-out: MIC alone
  MIC: 0.25 µg/mL
[3]; Staphylococcus aureus, MRSA, Concomitant (AZT:SM = 1:1), S. aureus SP-7928 (homo-MRSA), read-out: MIC concomitant
  MIC: 2 µg/mL
[3]; Staphylococcus aureus, MRSA, Concomitant (BIPM:SM = 1:1), S. aureus SP-7928 (homo-MRSA), read-out: MIC concomitant
  MIC: 2 µg/mL
[3]; Staphylococcus aureus, MRSA, Concomitant (CAZ:SM = 1:1), S. aureus SP-7928 (homo-MRSA), read-out: MIC concomitant
  MIC: 1 µg/mL
[3]; Staphylococcus aureus, MRSA, Concomitant (CPFX:SM = 1:1), S. aureus SP-7928 (homo-MRSA), read-out: MIC concomitant
  MIC: 0.25 µg/mL
[3]; Staphylococcus aureus, MRSA, Concomitant (DRPM:SM = 1:1), S. aureus SP-7928 (homo-MRSA), read-out: MIC concomitant
  MIC: 1 µg/mL
[3]; Staphylococcus aureus, MRSA, Concomitant (IPM:SM = 1:1), read-out: MIC
  MIC: 2 µg/mL
[3]; Staphylococcus aureus, MRSA, Concomitant (MEPM:SM = 1:1), read-out: MIC
  MIC: 1 µg/mL
[3]; Staphylococcus aureus, MRSA, Concomitant (MEPM:SM = 1:2), read-out: MIC
  MIC: 2 µg/mL
[3]; Staphylococcus aureus, MRSA, Concomitant (MEPM:SM = 1:4), read-out: MIC
  MIC: 2 µg/mL
[3]; Staphylococcus aureus, MRSA, Concomitant (PAPM:SM = 1:1), S. aureus SP-7928 (homo-MRSA), read-out: MIC concomitant
  MIC: 2 µg/mL
[3]; Staphylococcus aureus, MRSA, Concomitant (PIPC:SM = 1:1), S. aureus SP-7928 (homo-MRSA), read-out: MIC concomitant
  MIC: 1 µg/mL
[3]; Staphylococcus aureus, MRSA, Concomitant drug (MEPM:SM = 2:1), read-out: MIC
  MIC: 1 µg/mL
[3]; Staphylococcus aureus, MRSA, alone, read-out: MIC
  MIC: 1 µg/mL
[3]; Staphylococcus aureus, MRSA, drug alone, S. aureus SP-7928 (homo-MRSA), read-out: MIC alone
  MIC: 2 µg/mL
[3]; alone
  MIC: 2 µg/mL
[3]; drug alone, S. aureus SP-7928 (homo-MRSA)
  MIC alone: 1 µg/mL
[4]; ATCC9341, Concomitant (AZT:SM = 1:1), M. luteus ATCC9341, read-out: MIC concomitant
  MIC: ≤ 0.002 µg/mL
[4]; ATCC9341, Concomitant (BIPM:SM = 1:1), M. luteus ATCC9341, read-out: MIC concomitant
  MIC: 0.004 µg/mL
[4]; ATCC9341, Concomitant (CAZ:SM = 1:1), M. luteus ATCC9341, read-out: MIC concomitant
  MIC: ≤ 0.002 µg/mL
[4]; ATCC9341, Concomitant (CPFX:SM = 1:1), M. luteus ATCC9341, read-out: MIC concomitant
  MIC: 0.004 µg/mL
[4]; ATCC9341, Concomitant (DRPM:SM = 1:1), M. luteus ATCC9341, read-out: MIC concomitant
  MIC: ≤ 0.002 µg/mL
[4]; ATCC9341, Concomitant (IPM:SM = 1:1), read-out: MIC
  MIC: 0.004 µg/mL
[4]; ATCC9341, Concomitant (MEPM:SM = 1:1), read-out: MIC
  MIC: ≤ 0.016 µg/mL
[4]; ATCC9341, Concomitant (MEPM:SM = 1:2), read-out: MIC
  MIC: ≤ 0.031 µg/mL
[4]; ATCC9341, Concomitant (MEPM:SM = 1:4), read-out: MIC
  MIC: ≤ 0.063 µg/mL
[4]; ATCC9341, Concomitant (PAPM:SM = 1:1), M. luteus ATCC9341, read-out: MIC concomitant
  MIC: ≤ 0.002 µg/mL
[4]; ATCC9341, Concomitant (PIPC:SM = 1:1), M. luteus ATCC9341, read-out: MIC concomitant
  MIC: ≤ 0.002 µg/mL
[4]; ATCC9341, Concomitant drug (MEPM:SM = 2:1), read-out: MIC
  MIC: ≤ 0.008 µg/mL
[4]; ATCC9341, alone, read-out: MIC
  MIC: ≤ 0.008 µg/mL
[4]; ATCC9341, drug alone, M. luteus ATCC9341, read-out: MIC alone
  MIC: 0.004 µg/mL
[5]; ATCC10031, Concomitant (AZT:SM = 1:1), K. pneumoniae ATCC10031, read-out: MIC concomitant
  MIC: 0.004 µg/mL
[5]; ATCC10031, Concomitant (BIPM:SM = 1:1), K. pneumoniae ATCC10031, read-out: MIC concomitant
  MIC: 0.016 µg/mL
[5]; ATCC10031, Concomitant (CAZ:SM = 1:1), K. pneumoniae ATCC10031, read-out: MIC concomitant
  MIC: 0.008 µg/mL
[5]; ATCC10031, Concomitant (CPFX:SM = 1:1), K. pneumoniae ATCC10031, read-out: MIC concomitant
  MIC: ≤ 0.002 µg/mL
[5]; ATCC10031, Concomitant (DRPM:SM = 1:1), K. pneumoniae ATCC10031, read-out: MIC concomitant
  MIC: 0.008 µg/mL
[5]; ATCC10031, Concomitant (IPM:SM = 1:1), read-out: MIC
  MIC: 0.031 µg/mL
[5]; ATCC10031, Concomitant (MEPM:SM = 1:1), read-out: MIC
  MIC: ≤ 0.016 µg/mL
[5]; ATCC10031, Concomitant (MEPM:SM = 1:2), read-out: MIC
  MIC: ≤ 0.031 µg/mL
[5]; ATCC10031, Concomitant (MEPM:SM = 1:4), read-out: MIC
  MIC: ≤ 0.063 µg/mL
[5]; ATCC10031, Concomitant (PAPM:SM = 1:1), K. pneumoniae ATCC10031, read-out: MIC concomitant
  MIC: 0.016 µg/mL
[5]; ATCC10031, Concomitant (PIPC:SM = 1:1), K. pneumoniae ATCC10031, read-out: MIC concomitant
  MIC: 0.016 µg/mL
[5]; ATCC10031, Concomitant drug (MEPM:SM = 2:1), read-out: MIC
  MIC: ≤ 0.008 µg/mL
[6]; ATCC13048, Concomitant (AZT:SM = 1:1), E. aerogenes ATCC13048, read-out: MIC concomitant
  MIC: 8 µg/mL
[6]; ATCC13048, Concomitant (BIPM:SM = 1:1), E. aerogenes ATCC13048, read-out: MIC concomitant
  MIC: 0.063 µg/mL
[6]; ATCC13048, Concomitant (CAZ:SM = 1:1), E. aerogenes ATCC13048, read-out: MIC concomitant
  MIC: 8 µg/mL
[6]; ATCC13048, Concomitant (CPFX:SM = 1:1), E. aerogenes ATCC13048, read-out: MIC concomitant
  MIC: 0.031 µg/mL
[6]; ATCC13048, Concomitant (DRPM:SM = 1:1), E. aerogenes ATCC13048, read-out: MIC concomitant
  MIC: 0.031 µg/mL
[6]; ATCC13048, Concomitant (IPM:SM = 1:1), read-out: MIC
  MIC: 0.125 µg/mL
[6]; ATCC13048, Concomitant (MEPM:SM = 1:1), read-out: MIC
  MIC: ≤ 0.016 µg/mL
[6]; ATCC13048, Concomitant (MEPM:SM = 1:2), read-out: MIC
  MIC: 0.063 µg/mL
[6]; ATCC13048, Concomitant (MEPM:SM = 1:4), read-out: MIC
  MIC: 0.125 µg/mL
[6]; ATCC13048, Concomitant (PAPM:SM = 1:1), E. aerogenes ATCC13048, read-out: MIC concomitant
  MIC: 0.25 µg/mL
[6]; ATCC13048, Concomitant (PIPC:SM = 1:1), E. aerogenes ATCC13048, read-out: MIC concomitant
  MIC: 8 µg/mL
[6]; ATCC13048, Concomitant drug (MEPM:SM = 2:1), read-out: MIC
  MIC: 0.016 µg/mL
[6]; ATCC13048, alone, read-out: MIC
  MIC: 8 µg/mL
[6]; ATCC13048, drug alone, E. aerogenes ATCC13048, read-out: MIC alone
  MIC: 8 µg/mL
[7]; GN346, Concomitant (AZT:SM = 1:1)
  MIC: 8 µg/mL
[7]; GN346, Concomitant (BIPM:SM = 1:1)
  MIC: 0.125 µg/mL
[7]; GN346, Concomitant (CAZ:SM = 1:1)
  MIC: 8 µg/mL
[7]; GN346, Concomitant (CPFX:SM = 1:1)
  MIC: 0.008 µg/mL
[7]; GN346, Concomitant (DRPM:SM = 1:1)
  MIC: 0.063 µg/mL
